Data on 15 compounds can be found in PubChem BioAssay (NCI).

Molecules are shown by their SMILES.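 Compound exposure: 48 hours, 5 concentrations, 96-well plates. The concentration for 50% growth inhibition is given as GI50. At the TGI there is no net growth.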

Test systems include KM20L2 colon; XF 498 CNS; DMS 273 small cell lung; SNB-78 CNS; DMS 114 small cell lung; M19-MEL melanoma; RXF-631 renal; HOP-18 NSCLC; SN12K1 renal; P388/ADR leukemia; MDA-N.
What all share (experiment): NCI tumour cell line growth inhibition, 48 h

As for `Cc1cc(C)c2c(c1)Nc1ccccc1P2c1ccccc1` (stereo not drawn), the TGI is 74.7 µM in the assay on KM20L2 colon; 33.3 µM in the assay with XF 498 CNS; 50.7 µM with DMS 273 small cell lung; above 100 µM in the assay with SNB-78 CNS; above 100 µM in the assay with DMS 114 small cell lung.

With `NNC(=O)CCC(=O)Nc1cc(Cl)c(Cl)cc1Cl`, the TGI in the assay with KM20L2 colon, in the assay on XF 498 CNS, in the assay with M19-MEL melanoma, in the assay on DMS 273 small cell lung, with SNB-78 CNS and with RXF-631 renal was above 100 µM throughout. Also, the TGI in the assay on DMS 114 small cell lung is above 100 µM.

For `O=C1OC(CC(=O)c2ccc(Cl)cc2Cl)C(Cl)=C1Cl` (stereo not drawn), the TGI with KM20L2 colon was 42 µM; in the assay on XF 498 CNS, 45.6 µM; with M19-MEL melanoma, 48.8 µM; with DMS 273 small cell lung it was above 100 µM; in the assay with HOP-18 NSCLC it was above 100 µM; with SNB-78 CNS it was above 71.3 µM. Further, the results for the TGI in the assay with RXF-631 renal and in the assay with DMS 114 small cell lung were above 75.5 µM and above 53.1 µM, respectively.

As for `CCc1ccccc1N1CCN(C(=O)c2cc(OC)c(OC)c(OC)c2)CC1`, the TGI in the assay with KM20L2 colon is 0.307 µM; in the assay with XF 498 CNS, 17.9 µM; with M19-MEL melanoma it was above 100 µM; in the assay on DMS 273 small cell lung, above 100 µM; in the assay on HOP-18 NSCLC, above 91.9 µM; in the assay with SNB-78 CNS, above 100 µM. Further, the TGI was found to be 0.692 µM in the assay on DMS 114 small cell lung, 0.194 µM in the assay with SN12K1 renal and 4.22 µM in the assay with P388/ADR leukemia.

For the compound `O=C1/C(=C/c2ccccc2F)CNC/C1=C\c1ccccc1F`, in the assay on MDA-N, the GI50 is 0.485 µM and the TGI is 1.71 µM.

In the case of `O=c1c2cc(Br)ccc2nc(-c2ccccc2Cl)n1NCC1(O)OCC(O)C(O)C1O` (stereo not drawn), the TGI in the assay with KM20L2 colon, in the assay on M19-MEL melanoma, with DMS 273 small cell lung, in the assay on SNB-78 CNS and with DMS 114 small cell lung was above 100 µM each time.

Turning to `C=C(C)C(=O)OC1CC2=CC(CC3(C)OC3C3OC(=O)C(=C)C13)OC2=O` (stereo not drawn), the TGI in the assay on KM20L2 colon worked out at 30.5 µM; in the assay with M19-MEL melanoma, 19 µM; in the assay with DMS 273 small cell lung, 28.3 µM; in the assay with HOP-18 NSCLC it was 34.1 µM; in the assay on SNB-78 CNS, 33.3 µM; with RXF-631 renal, 35.8 µM. The TGI in the assay with DMS 114 small cell lung is 30.3 µM.

As for `CS(=O)(=O)OCCn1cnc2nc(NC(=O)c3ccccc3)[nH]c(=O)c21`, the TGI in the assay with KM20L2 colon, with M19-MEL melanoma, in the assay on DMS 273 small cell lung, with HOP-18 NSCLC, in the assay on SNB-78 CNS and in the assay on RXF-631 renal was above 100 µM in each case. Further, the TGI with DMS 114 small cell lung is above 100 µM.

`O=C1C=C[C@@]23C[C@@H](Nc4c(O)c5c6c(c42)=NCCC=6C=N5)SC3=C1`: the TGI in the assay with KM20L2 colon came out at 10.7 µM; in the assay on XF 498 CNS, 4.95 µM; in the assay with M19-MEL melanoma, 3.24 µM; in the assay on MDA-N, 3.1 µM; in the assay with DMS 273 small cell lung, 8.37 µM; in the assay on HOP-18 NSCLC, 28.1 µM. Moreover, the TGI in the assay on SNB-78 CNS came out at 12.3 µM. The GI50 in the assay on XF 498 CNS was 2.34 µM; in the assay with M19-MEL melanoma, 1.71 µM; with DMS 273 small cell lung, 2.42 µM; in the assay on HOP-18 NSCLC, 14.8 µM; with SNB-78 CNS, 3.24 µM.

Turning to `CC(=O)Nc1ccc(/C=N\N2C(=O)c3ccccc3C2=O)cc1`, the TGI in the assay on KM20L2 colon, with XF 498 CNS, in the assay on M19-MEL melanoma, in the assay on DMS 273 small cell lung, with HOP-18 NSCLC and with SNB-78 CNS was above 100 µM each time. This compound had a TGI in the assay on DMS 114 small cell lung above 100 µM.

Regarding `CN(C)CCNC(=O)c1ccc(C(=O)NCCN(C)C)c2nc3ccccc3cc12`, the TGI with KM20L2 colon is 10.3 µM; with M19-MEL melanoma it was 2.35 µM; in the assay on DMS 273 small cell lung, 4.76 µM; with HOP-18 NSCLC, 25.4 µM; in the assay with SNB-78 CNS, 12.7 µM; in the assay with RXF-631 renal, 14.8 µM. The compound further returned a TGI with DMS 114 small cell lung of 2.16 µM.

For `Fc1cccc2cc3ccc4cccc5ccc(c12)c3c45`, the TGI is above 100 µM in the assay with KM20L2 colon; above 100 µM in the assay on XF 498 CNS; above 100 µM in the assay on M19-MEL melanoma; above 100 µM in the assay on DMS 273 small cell lung; 12.8 µM with HOP-18 NSCLC; above 100 µM with RXF-631 renal. Moreover, the TGI in the assay on DMS 114 small cell lung is above 100 µM.

Turning to `C/C([O-])=C1\Cc2ccccc2C1=O.C/C([O-])=C1\Cc2ccccc2C1=O.CC[O-].CC[O-].[Ti+4]`, the GI50 with KM20L2 colon is 29.2 µM; in the assay with M19-MEL melanoma, 16.8 µM; in the assay with MDA-N, 17.1 µM; in the assay on DMS 273 small cell lung it was 8.38 µM; in the assay on HOP-18 NSCLC it was 32.5 µM; in the assay with SNB-78 CNS, 24 µM. Moreover, the results for the GI50 in the assay with RXF-631 renal and in the assay with DMS 114 small cell lung were 6.96 µM and 18.7 µM, respectively. Also, the TGI was above 100 µM in the assay with KM20L2 colon; 34.8 µM in the assay with M19-MEL melanoma; 42.3 µM in the assay on MDA-N; 31.4 µM with DMS 273 small cell lung; 80 µM in the assay with HOP-18 NSCLC; above 100 µM in the assay on SNB-78 CNS. The TGI with RXF-631 renal was determined as 29.1 µM; with DMS 114 small cell lung, 37.4 µM.

As to `O=c1[nH]nc2ccccc2c1Cl`, the TGI with KM20L2 colon was found to be 29.5 µM; with XF 498 CNS, 28.1 µM; in the assay with M19-MEL melanoma, 20.1 µM; in the assay on DMS 273 small cell lung, 35.5 µM; in the assay on HOP-18 NSCLC, 29.1 µM; in the assay with SNB-78 CNS it was 41.1 µM. The TGI with RXF-631 renal is 28.4 µM; in the assay with DMS 114 small cell lung, 18.9 µM.

`Nc1ncnc2c1ncn2CC(O)C(=O)O` (stereo not drawn): the TGI in the assay on KM20L2 colon, in the assay on M19-MEL melanoma, with MDA-N, in the assay on DMS 273 small cell lung, with HOP-18 NSCLC and in the assay on DMS 114 small cell lung was above 100 µM each time.
